Assay results taken from a melting point compilation (Tetko et al.).

| Structure (SMILES) | melting point [°C] |
| --- | --- |
| CC(C(=O)O)c1ccc2c(c1)OCCO2 (stereo not given) | 77 to 79 |
| Nc1cc(=O)[nH]n1-c1ccc(F)cc1 | 202 to 204 |
| CC(=O)c1cc(N)cc(C(C)=O)c1 | 139 to 141 |
| Cc1cc(Cl)c2c(c1)C(=O)C(=O)N2 | 173 to 175 |
| [N-]=[N+]=Nc1cccc2ncccc12 | 61 to 63 |
| Nc1nnc(-c2ccc(F)cc2)[nH]1 | 223 to 227 |
| CCOC(=O)c1c(C)[nH]c(C(=O)CCl)c1C | 188 to 190 |
| Cc1cc(N)c(C)cn1 | 145 to 147 |
| O=C(CCl)c1ccc2c(c1)-c1ccccc1C2 | 133 to 135 |
| O=S(=O)(c1nnc[nH]1)N1CCNCC1 | 240 to 242 |
| CC(C)(C)c1ccc(C2(C(=O)O)CCCCC2)cc1 | 160 to 162 |
| CC(C)Cc1ccc(C(=O)CBr)cc1 | 37 to 39 |
| NS(=O)(=O)Cc1cccc2cccnc12 | 154 to 156 |
| O=C1CCCc2ccccc2N1 | 129 to 131 |
| Cc1cc(N)n(C(C)(C)C)n1 | 66 to 68 |
| COc1ccc(C(=O)CC(C)=O)cc1 | 52 to 54 |
| CCOC(=O)C(=O)c1c(-c2ccc(C)cc2)nc2ccccn12 | 116 to 118 |
| Cc1c(F)cc(C(=O)O)cc1[N+](=O)[O-] | 168 to 170 |
| ClCc1nc(-c2ccsc2)no1 | 52 to 56 |
| Cc1ccnn1-c1ccc(C(=O)O)cc1 | 243 to 245 |
| CC(O)c1ccccc1NC(=O)c1ccccc1 (stereo not given) | 111 to 113 |
| O=C(O)CNC(=O)CNS(=O)(=O)Cc1ccc(F)cc1 | 198 to 200 |
| Cn1cc(C(=O)O)c(C2CCCCC2)n1 | 157 to 159 |
| O=C(O)Cc1ccc(S(=O)(=O)N2CCOCC2)s1 | 116 to 118 |

| Structure (SMILES) | melting point [°C] |
| --- | --- |
| CC(C)(C)OC(=O)Nc1ncon1 | 165 to 167 |
| CC(=O)c1ccc(S(=O)(=O)Nc2ccc(C(=O)O)cc2)cc1 | 152 to 154 |
| COc1ccccc1C(=O)c1ccccc1Cl | 59 to 61 |
| Cc1cccc2c(CCC(=O)O)c[nH]c12 | 149 to 151 |
| C#Cc1ccc(C(=O)O)cn1 | 129 to 131 |
| O=C(O)CNS(=O)(=O)C=Cc1ccccc1 | 80 to 82 |
| Cc1cc(C)c(C(=O)O)c(Cl)n1 | 78 to 82 |
| COC(=O)C(N)c1ccc(F)cc1F (stereo not given) | 39 to 41 |
| Nc1ccc(NC(=O)c2cccs2)cc1 | 166 to 168 |
| Cc1cc(-n2c(C)cc(C=O)c2C)no1 | 75 to 77 |
| Nc1cccnc1C(=O)O | 218 to 220 |
| COc1ccnc(CO)c1 | 70 to 72 |
| CC(C)Oc1cccc(CNC(=O)CCl)c1 | 69 to 71 |
| Nc1ccc(S(=O)(=O)CC2CCCO2)cc1 (stereo not given) | 100 to 102 |
| CC(C)CNC(N)=S | 99 to 101 |
| c1cnc2c(NC3CCC3)cccc2c1 | 48 to 50 |
| COc1cccc2c1C(=O)CC2 | 99 to 102 |
| O=C(O)C1(c2ccccc2F)CCCC1 | 106 to 108 |
| O=S(=O)(Cl)c1ccc(S(=O)(=O)NC2CC2)cc1 | 126 to 128 |
| O=C(O)/C=C/c1ccc(Cl)s1 | 198 to 200 |
| CC(=O)Nc1ccc(S(=O)(=O)N2CCC(N)CC2)cc1 | 212 to 214 |
| O=C(Nc1ccc(C(=O)O)c(O)c1)c1cc(Cl)cc(Cl)c1 | 268 to 270 |
| Clc1ccc(N2CCNCC2)nc1 | 64 to 66 |
| Cc1cc(C)n(-c2ccc(N)cc2F)n1 | 124 to 126 |

| Structure (SMILES) | melting point [°C] |
| --- | --- |
| CC(NC(=O)c1ccc(Br)cc1)C(=O)O (stereo not given) | 138 to 140 |
| O=C(O)c1ccc(-c2ccccc2Cl)o1 | 210 to 212 |
| NS(=O)(=O)c1ccc(OCc2ccccc2Cl)cc1 | 179 to 181 |
| Cn1ccc(C(=O)CCl)c1 | 49 to 51 |
| CC(C)(C)C1CCc2sc(-c3nnc(S)o3)cc2C1 (stereo not given) | 176 to 178 |
| O=C(O)c1nccnc1C(=O)NCc1ccc(F)cc1 | 170 to 172 |
| O=S(=O)(F)Cc1ccccc1Cl | 69 to 71 |
| COC(=O)c1cc(F)cc(S(=O)(=O)Cl)c1Br | 73 to 75 |
| C/C=C/c1cc(C(=O)O)cc(OC)c1OC | 142 to 144 |
| O=C(O)Cc1ccc2c(c1)CCO2 | 102 to 104 |
| CC(C)n1cc2cc(N)ccc2n1 | 105 to 107 |
| COc1ccc2c(=O)[nH]cnc2c1 | 251 to 253 |
| CC1CCC(C(C)C)C(OC(=O)CSc2ccccc2C(=O)O)C1 (stereo not given) | 137 to 139 |
| CC(C)c1cc(C(=O)O)c2cnn(C(C)C)c2n1 | 144 to 146 |
| CCOC(=O)c1c(N)sc(C(=O)NC)c1C | 151 to 153 |
| Ic1ccc2ncccc2c1 | 86 to 88 |
| CC(C)(C)Nc1ccc(C(=O)O)cc1S(=O)(=O)NC(C)(C)C | 243 to 245 |
| O=C(CBr)c1ccc(S(=O)(=O)N2CCOCC2)cc1 | 148 to 150 |
| Cc1c(C(=O)O)nnn1-c1ccc(F)cc1 | 181 to 183 |
| Cc1cccc(-c2nc3cc(Cl)ccc3[nH]2)c1O | 249 to 251 |
| Cc1cc(-c2cc(C(=O)O)c3c(C)noc3n2)c(C)s1 | 256 to 258 |
| Cn1c(S)nnc1-c1cncc(N)c1 | 206 to 208 |
